Values quoted from earlier work as cited in patent publication US20100080856A1, “Method and composition for postoperative wound healing” (priority 2008, published 2010).

Tested on: wound healing in severe burn patients
Details: oral administration, Crit Care Med. 2000, Vol 28, No. 6, 1772-1776

Structure (SMILES): NCCC[C@H](N)C(=O)O.NCCC[C@H](N)C(=O)O.O=C(O)CCC(=O)C(=O)O [ornithine α-ketoglutarate]
- wound healing time: shortens the wound healing time
